The source of these data is PMC6934184, “Selective DNA-PKcs inhibition extends the therapeutic index of localized radiotherapy and chemotherapy” (The Journal of Clinical Investigation, 2019).

The target in this assay is T1, TESK2 (Homo sapiens, UniProt Q96S53).
T1 construct: purchased Thermo Fisher Scientific (Life Technologies) SelectScreen
Put plainly: SelectScreen LanthaScreen. It is filed as binding. Conditions: read-out: % displacement. Put shortly:
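NU5455 was profiled across the SelectScreen Broad panel of kinase activity and binding assays. Z'LYTE reactions such as CSF1R ran at apparent Km ATP, while the Adapta CAMK1 assay used ATP listed as 10. Values are given as percent.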

T1 sequence (Q96S53 whole entry): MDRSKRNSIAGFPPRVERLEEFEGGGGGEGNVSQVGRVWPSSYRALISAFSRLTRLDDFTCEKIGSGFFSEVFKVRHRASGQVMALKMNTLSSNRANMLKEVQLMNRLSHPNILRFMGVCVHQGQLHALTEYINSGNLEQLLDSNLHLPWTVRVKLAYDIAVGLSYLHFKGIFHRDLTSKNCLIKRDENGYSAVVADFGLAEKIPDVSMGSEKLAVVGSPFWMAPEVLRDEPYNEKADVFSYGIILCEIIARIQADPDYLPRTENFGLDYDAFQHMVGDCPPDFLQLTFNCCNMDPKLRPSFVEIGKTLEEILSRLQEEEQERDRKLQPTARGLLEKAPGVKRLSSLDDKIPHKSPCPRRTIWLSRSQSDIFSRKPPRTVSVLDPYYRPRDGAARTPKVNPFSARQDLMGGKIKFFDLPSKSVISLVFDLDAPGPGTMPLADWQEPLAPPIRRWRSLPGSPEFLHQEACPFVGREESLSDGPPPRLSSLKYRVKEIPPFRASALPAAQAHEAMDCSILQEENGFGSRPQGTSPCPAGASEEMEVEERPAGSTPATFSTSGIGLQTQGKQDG

As to `CN(C(=O)CN1CCOCC1)c1ccc2sc3c(-c4cccc5c(=O)cc(N6CC7CCC(C6)O7)oc45)cccc3c2c1` [NU5455], the inhibition at 1 µM was 2.7%.
